The experiment addresses T1, recombinant human renin (Homo sapiens, UniProt P00797).
T1 sequence (P00797 67-406): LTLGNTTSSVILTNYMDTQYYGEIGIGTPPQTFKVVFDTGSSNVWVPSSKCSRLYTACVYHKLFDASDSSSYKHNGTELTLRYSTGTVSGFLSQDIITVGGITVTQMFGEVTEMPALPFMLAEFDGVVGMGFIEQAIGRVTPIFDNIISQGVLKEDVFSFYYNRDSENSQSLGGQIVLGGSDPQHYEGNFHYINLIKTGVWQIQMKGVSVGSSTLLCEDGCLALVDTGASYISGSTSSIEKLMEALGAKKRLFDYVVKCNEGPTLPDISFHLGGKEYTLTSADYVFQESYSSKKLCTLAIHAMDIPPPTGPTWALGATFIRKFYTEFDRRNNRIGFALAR
Put plainly: Primary renin inhibition assay: IC50 in buffer, 384 well MTP (AngI quantified by EIA).

Procedure: Enzyme Immuno Assay (EIA) to Estimate AngI Accumulation and Renin Inhibition
The mixture was incubated overnight at 4° C., then dialyzed against 2 liters of 0.9% NaCl, twice for 4 h at rt, followed by dialysis against 2 liters of PBS 1× overnight at rt. […] The conjugate can be stored in polypropylene tubes in 0.05% sodium azide at 4° C. for at least 12 months.
The AngI (1-10)/BSA coated MTP were washed 3 times with wash buffer (PBS 1×, 0.01% Tween 20) and filled with 75 μl of primary antibody solution (anti-AngI antiserum, pre-diluted 1:10 in horse serum), diluted to a final concentration of 1:100'000 in assay buffer (PBS 1×, 1 mM EDTA, 0.1% BSA, pH 7.4). 5 μl of the renin reaction (or standards in assay buffer) (see below) were added to the primary antibody solution and the plates were incubated overnight at 4° C. […]
In the second step, the accumulated AngI is measured by an immunological assay (enzyme immuno assay, EIA). […]
Test compounds were dissolved and diluted in 100% DMSO and 2.5 μl added to the premix, then incubated at 37° C. for 3 h. At the end of the incubation period, 5 μl of the renin reaction (or standards in assay buffer) were transferred into EIA assays (as described above) and AngI produced by renin was quantified.

Take `COCCCc1cc(CN(C(=O)[C@H]2CNCC[C@]2(O)c2ccc(OCCOc3c(Cl)cc(C)cc3Cl)nc2)C2CC2)c(Cl)c[n+]1[O-]` [Example 7, (3′S,4′R)-6-[2-(2,6-Dichloro-4-methyl-phenoxy)-ethoxy]-4′-hydroxy-1′,2′,3′,4′,5′,6′-hexahydro-[3,4′]bipyridinyl-3′-carboxylic acid [5-chloro-2-(3-methoxy-propyl)-1-oxy-pyridin-4-ylmethyl]-cyclopropyl-amide]: the IC50 was 0.23 nM.

One may read the IC50 as the concentration that inhibits the measured activity by half.

The values are drawn from patent US20090062342A1, “AMINES” (Actelion Pharmaceuticals Ltd., priority 2006, published 2009).
